According to patent publication US10500188B1, “Use of a polyenylpyrrole derivative in preparation of anti-oral cancer drugs” (TZU CHI UNIVERSITY, priority 2019, dated 2019):

Columns and labels:
[1] = test system: prostate apoptosis response-4 (Par-4); assay: Expression of Par-4 in OSCC cells; type: cell-based; conditions: FIG. 3C
Method: Also refer to FIG. 3D and FIG. 3E. The results of the SC group (SCC-15 cell line without the knockdown Par-4 gene) treated with 10 nM, 50 nM, 80 nM, 100 nM, and 200 nM polyenylpyrrole derivative (F236B) for 24 hours and 48 hours respectively are shown in FIG. 3D. The results of the Par-4-KD group (SCC-15 cell line with the knockdown Par-4 gene) treated with 10 nM, 50 nM, 80 nM, 100 nM, and 200 nM polyenylpyrrole derivative (F236B) for 24 hours and 48 hours respectively are shown in FIG. 3E.

[2] = test system: patient oral cancer tissue xenograft; assay: Patient-derived xenograft (PDX) model of patients with oral cancers; type: in vivo, NOD-SCID male mice
Description: (§1) In order to learn whether in vivo test results of OSCC cells (SCC-15, TW2.6) are consistent with in vitro test results of the same, a cell-line-derived xenograft model (SCC-15 cell line) and a patient-derived xenograft (PDX) model of patients with oral cancers are used to test xenograft tumorigenicity of oral cancer cells and the results are shown in FIG. 2D-2F.
After approval of the institutional review board (IRB), oral cancer tissues of patients are collected at the Department of Otolaryngology, Hualien Tzu Chi Hospital during the period from Jul. 1, 2016 to Jun. 30, 2017. The PDX model has been established by immersing and washing the samples collected in Penicillin/Streptomycin diluted 2-fold with PBS, and using six-to-eight-week-old NOD-SCID male mice. After injection of a 0.01 mL/g body weight dose of ketamine/xylazine into a mouse, a 1.5×1.5 cm^2 skin surface at the right abdomen of the anesthetized mouse is treated with a depilatory agent to remove hair. Use tincture of iodine as a disinfectant and cut a wound of […] on the mouse skin and suture the wound after tumor tissue being applied. During recovery period, the rearing cage is set on the heating pad and turned back to the rearing rack after recovery. After the surgery, observe the mouse day by day and then get the mouse out of the cage when the tumor reaches a diameter of about 1 cm. […]

SCC-15 cells [3] = assay: Transwell assay for movement of tumor cells; type: cell-based, human; conditions: 24 and 48 hrs, compared with the Par-4-KD group, FIG. 6
Method: Refer to FIG. 6, a transwell assay is used for testing movement of tumor cells. A 24-well transwell chamber with 8.0 μm polycarbonate membrane (6.5 mm) therein is used. Add 100 μL serum free media into the upper layer and 500 μL media containing 10% serum into the lower layer. Then add 5000 cells (SCC-15) into the upper layer of each well, incubate overnight and add the polyenylpyrrole derivative (F236B). Remove the upper layer after 24 hrs and 48 hrs, respectively and wash 2 times with PBS. Add methanol (500 μL per well) at 4° C. for 1 hr for fixation and wash 2 times with PBS. Next, stain with crystal violet for 10 min and wash 2 times with PBS. Lastly observe and count the number of cells moved to the lower layer.

[4] = test system: SCC-15 cell line without the knockdown Par-4 gene; assay: Migration test, SC group; type: cell-based, human; conditions: 100 nM and 200 nM; 0, 3, 9 hr; FIG. 5A
Method: Then migration and movement of the Par-4-KD group and the SC group treated with polyenylpyrrole derivative (F236B) is tested and the results are shown in FIG. 5A-5B and FIG. 6.
The results of the Par-4-KD group (SCC-15 cell line with the knockdown Par-4 gene) treated with 100 nM and 200 nM polyenylpyrrole derivative (F236B) for 0, 3, and 9 hrs respectively are shown in FIG. 5B.

SCC-15 cells [5] = assay: Tumor sphere formation on matrigel; type: cell-based, human; conditions: compared with the Par-4-KD group; FIG. 4
Method: Refer to FIG. 4, the test results of the tumor sphere formation ability of the OSCC cells are shown. In order to culture cells (SCC-15) for tumor sphere formation, each well of a 24-well plate is coated with 150 μL growth factor reduced matrigel, then placed in 4° C. refrigerator and shaken for 15 minutes to make the growth factor reduced matrigel distribute evenly therein. Place in 37° C. incubator for 1 hour. After firm matrigel formation, each well is added with 5000 SCC-15 cells and change culture medium every day.

OSCC cells (SCC-15) = assay: MTT cell proliferation assay, OSCC cells (SCC-15); type: cell-based, human
Method: (§2) MTT (3-(4,5-dimethylthiazol-2-yl)-2,5-diphenyltetrazolium bromide) assay is used for measuring cell proliferation. Add 3000 OSCC cells (SCC-15 and TW2.6) and 5000 immortalized cells (K2) into each well of a 96-well plate. Next day add the present polyenylpyrrole derivative (F236B) into the respective well and remove culture medium after 24 hours (hr) and 48 hr respectively. Then add MTT dissolved in culture medium (150 μL per well) except the background wells and react for 90 min. Lastly remove solution in the culture plate and add DMSO (150 μL per well) into the culture plate for dissolving the pigment. After being dissolved completely, use the ELISA machine to measure absorbance at 570 nm. The concentration of the polyenylpyrrole derivative (F236B) used is 10, 50, 80, 100, and 200 nM respectively, as results shown in FIG. 2A-2C.
Also refer to FIG. 2C, test results of OSCC cells (TW2.6) treated with 10, 50, 80, 100, and 200 nM polyenylpyrrole derivative (F236B) respectively are disclosed. […] Moreover, the present polyenylpyrrole derivative (F236B) not only has effects on the OSCC cells of Western people (SCC-15) but also affects the OSCC cells of Asians (TW2.6). Thus the polyenylpyrrole derivative (F236B) can be widely used in the OSCC cells. In the previous tests for assessment of the effects of natural products on cancer cells, the unit of the concentration unit used is μM. […]

SCC-15 xenograft tumor = assay: Cell-line-derived xenograft model (SCC-15 cell line); type: in vivo, NOD-SCID male mice; conditions: 1 mg/kg s.c. into neck, vs PBS control, FIG. 2D
Description: as §1
As to the cell-line-derived xenograft model, six-to-eight-week-old NOD-SCID male mice are used. About 5×10^6 SCC-15 cells are subcutaneously injected into the right abdominal of the mouse. There are two experimental groups. The mouse in the first group (I) is injected with the polyenylpyrrole derivative (F236B) the day after being injected with the OSCC cells. In the second group (II), the mouse is injected with the polyenylpyrrole derivative (F236B) when the tumor grows to a size with a diameter of about […]. The polyenylpyrrole derivative (F236B) at a dose of 1 mg/kg is subcutaneously injected into the neck of the mouse. Samples are taken when the cells grow to a size with a diameter of about 1 cm (21-day).

[6] = test system: TW2.6 human oral squamous cell carcinoma (OSCC) cell line; assay: MTT cell proliferation assay, OSCC cells (TW2.6); type: cell-based; conditions: 10, 50, 80, 100, 200 nM, 24 and 48 hr, FIG. 2C
Description: The present polyenylpyrrole derivative is used to inhibit oral cancer cells. The oral cancer cell can be oral squamous cell carcinoma (OSCC) cell (SCC-15 cell line). The TW2.6 human oral squamous cell carcinoma (OSCC) cell line obtained from Asian people can also be used in cell proliferation assay.
as §2
Also refer to FIG. 2C, test results of OSCC cells (TW2.6) treated with 10, 50, 80, 100, and 200 nM polyenylpyrrole derivative (F236B) respectively are disclosed. […]

[7] = test system: IL-17RA in OSCC cells (SCC-15); assay: Western blot of IL-17RA expression; type: cell-based, human; conditions: SCC-15, Western blot, vs DMSO control; FIG. 7
Method: Western blot is used to detect expression of IL-17RA in the OSCC cells (SCC-15) treated with the polyenylpyrrole derivative (F236B). The proteins are separated by SDS-PAGE gel and then transferred to a Polyvinylidene difluoride (PVDF) membrane. Then soak in 5% BSA (bovine serum albumin) for 1 hour for blocking. After removal of BSA and addition of primary antibodies, place the membrane in 4° C. refrigerator with constant shaking for 16 hr and wash 3 times with TBST-Tween20 (TBST) (each takes 15 min). Next add secondary antibodies and shake at room temperature for 1 hour. Then wash 3 times with TBST and each step takes 15 min. Lastly use enhanced chemiluminescent (ECL) reagent (RPN2106 ECL™ Western Blotting Reagent) for imaging and UVP BioSpectrum to detect images. […] Therefore, the reduction effect of the polyenylpyrrole derivative (F236B) on the expression of IL-17RA is associated with the tumor-suppressor function of the polyenylpyrrole derivative (F236B).

normal oral cells (K2) = assay: MTT cell proliferation assay, normal oral cells (K2); type: cell-based; conditions: 100, 500, 800, 1000 nM, 24 and 48 hr, FIG. 2A
Method: as §2, with “The concentration of the polyenylpyrrole derivative (F236B) used is 10, 50, 80, 100, and 200 nM respectively, as results shown in FIG.” left out

- weight of the mouse ([2]; treated with F236B vs PBS, triplicate groups, FIG. 2F): not affected
SMILES: CCOc1cc(/C=C/C=C/C=C/C=C/c2[nH]ccc2Cl)oc(=O)c1 [F236B]
- expression of Par-4 in the OSCC cells [1]: enhances expression of Par-4
- tumor volume, PDX ([2]; P3 mice, 1 mg/kg s.c. into neck, vs PBS control, FIG. 2E): dramatically decreased
- movement of the OSCC cells in the SC group (SCC-15 cells [3]): significantly reduced
- migration ability, SC group [4]: clearly reduced
- tumor sphere formation ability, SC group (SCC-15 cells [5]): obviously reduced
- proliferation of OSCC cells (SCC-15) (OSCC cells (SCC-15); MTT, 10, 50, 80, 100, 200 nM, 24 and 48 hr, FIG. 2B): inhibits proliferation of the OSCC cells (SCC-15)
- proliferation of OSCC cells in the SC group (OSCC cells (SCC-15); SCC-15 without Par-4 knockdown, 10-200 nM, 24 and 48 hours, FIG. 3D): apparently reduced
- tumor volume, first group (I) (SCC-15 xenograft tumor; started the day after injection of OSCC cells, 21-day): significantly reduced
- tumor volume, second group (II) (SCC-15 xenograft tumor; started when tumor diameter about 30 mm): significantly reduced
- proliferation of OSCC cells (TW2.6) [6]: inhibits proliferation of the OSCC cells (TW2.6)
- expression of IL-17RA [7]: obviously inhibited
- proliferation of normal oral cells (K2) (normal oral cells (K2)): doesn't affect the proliferation of normal oral cells
